Key:
[1] = system: pancreatic organoids from Kras^G12D mutant mice; format: cell-based, mouse; conditions: FIG. 14A
Description: The organoids were treated with 0 μM, 200 μM or 500 μM of the drug, followed by analysis of GFP (see FIG. 14A).

[2] = system: mutant organoids (cancer-like); assay: p53 expression level by Western blot, mutant organoids; format: cell-based, mouse; conditions: two treatments 72 hours apart, day 5 after primary treatment; FIG. 15
Description: (§1) The mouse-derived organoids described in Examples 1 to 7 or patient-derived organoids were primarily treated with a drug, and after 72 hours, secondarily treated with the drug. As the drug, Resveratrone used in Examples 9 and 10 was used. On day 2 after the secondary drug treatment (day 5 after the primary drug treatment), the cell culture medium was removed, and then the cells were washed with 1 ml of PBS. After removal of PBS, the cells were mechanically dissociated with 500 μl of a recovery solution. The cell solution was agitated at 50 to 70 rpm at 4° C. for 1 hour, transferred into a microtube, and then centrifuged at 1200 rpm for 5 minutes, followed by removal of the supernatant. The remaining pellet was lysed with NETN buffer, and then sonicated using a sonicator for 1 minute with an output of 2 to 3 and centrifuged at 12,000 rpm for 20 to 30 minutes, and the supernatant was collected. The supernatant was quantified to 100 to 120 μg using Bradford assay, and then loaded onto a 10% polyacrylamide gel, followed by SD S-PAGE (Sodium Dodecyl Sulfate-Polyacrylamide gel electrophoresis) gel running. Then, the gel was transferred to a nitrocellulose membrane, and the transferred membrane was blocked with 5% skim milk while stirring at 50 rpm for 1 hour at RT. […]

[3] = system: patient-derived organoids; assay: p53 expression level by Western blot, patient-derived organoids; format: cell-based, human; conditions: two treatments 72 hours apart, day 5 after primary treatment; FIG. 15
Description: as §1

[4] = system: normal pancreatic organoids; assay: Effect of Resveratrone on normal organoids; format: cell-based, mouse; conditions: 0, 200 or 500 μM
Description: Pancreatic tissue isolated from the genetically mutated mice described in Examples 1 to 7 above was dissociated. Cell pellets containing ductal cells were collected from the dissociated pancreatic tissue. The collected cell pellets were grown with a biomatrix in a cell incubator at 37° C. under 5% CO2. Thereafter, the produced organoids were grown in an organoid culture medium until 75% or more thereof grew to a diameter of 200 to 500 μm. […] The organoids were treated with a drug diluted in an organoid culture medium. […] As a result of the measurement, it could be confirmed that, when the above-described drug treatment method was used, it was possible to track the drug responsiveness of each organoid, which was a limitation of a conventional drug screening method using organoids, and drug treatment in a uniform size state was possible. […] As the maximum value of the average diameter of the collected organoids increases, the difference in size (average diameter) between the organoids included increases, so that the difference in responsiveness to the same drug between the organoids increases. Thus, in order to obtain a uniform drug responsiveness result, it is important to determine the upper limit of the size (average diameter) of the organoids. […]

[5] = system: mouse-derived normal organoids; assay: p53 expression level by Western blot, normal organoids; format: cell-based; conditions: two treatments 72 hours apart, day 5 after primary treatment; FIG. 15
Description: as §1

[6] = system: pancreatic organoids derived from BRCA2 gene-deleted mice (Brca2^F11/F11; CreER™); assay: Drug responsiveness of pancreatic organoids with normal or exon 11-deleted BRCA2, observed with an inverted microscope; format: cell-based, mouse; conditions: alone or in combination with 200 nM TSA, with vs without BRCA2 exon 11 deletion, FIG. 6
Description: With reference to the method of Example 2 above, pancreatic organoids derived from BRCA2 gene-deleted mice (Brca2^F11/F11; CreER™) were prepared. To induce a partial deletion of BRCA2 gene (deletion of exon 11 of BRCA2 gene), 4-hydroxytamoxifen (4-OHT) was added to the organoids in an amount of 400 nM, and the resulting organoids were cultured for 3 weeks or more (see Example 2). For comparison, organoids not treated with 4-OHT (in which BRCA2 gene is normal) were also prepared.
Organoids having normal BRCA2 gene (not treated with 4-OHT) and organoids with a partial deletion of BRCA2 (exon 11 deletion) were seeded in equal amounts into 24-well plates. On the day after seeding, the organoids were treated with a mixture of the anticancer agent histone deacetylase inhibitor (HDACi) and a culture medium (see Example 2).
3 days after treatment (first treatment) with HDACi, the culture medium was replaced with a fresh medium, and treatment (second treatment) with each HDACi was performed again at the concentration shown in Table 3. Here, the primary treatment with HDACi was performed about 24 to 48 hours after seeding of the organoids, and 3 days after that, the second treatment was performed.

Compound: CC(=O)/C=C/c1ccc2cc(O)cc(O)c2c1 [Resveratrone]
- GFP / green fluorescence of dying cells ([1]; 200 μM): exhibited fluorescence
- GFP / cell death ([1]; 500 μM): cell death occurred and GFP decreased
- expression level of p53 [2]: did not increase
- expression level of p53, normal vs cancer tendency [3]: this tendency was also found in the patient-derived organoids
- effect of the drug on normal pancreatic organoids [4]: no effect
- expression level of p53 [5]: increased

Compound: O=C(c1cc(Cc2n[nH]c(=O)c3ccccc23)ccc1F)N1CCN(C(=O)C2CC2)CC1 [Olaparib]
- responsiveness to the tested drugs (state of the organoids) ([6]; 10 μM): did differ depending on the presence or absence of the BRCA2 gene

Compound: CC[C@@H]1C(=O)N(C)c2cnc(Nc3ccc(C(=O)NC4CCN(C)CC4)cc3OC)nc2N1C1CCCC1 [BI2536]
- responsiveness to the tested drugs (state of the organoids) ([6]; 10 nM): did differ depending on the presence or absence of the BRCA2 gene

Reference: patent US20210282378A1, “Mutant Mouse-Derived Pancreatic Organoid and Method for Evaluating Standardized Drug for Efficacy” (Seoul National University R&DB Foundation, priority 2018, published 2021)
